# ChEMBL document CHEMBL5506005, “Biochemical and structural characterization of chlorhexidine as an ATP-assisted inhibitor against type 1 methionyl-tRNA synthetase from Gram-positive bacteria” (Eur J Med Chem, 2024)
# Active and inactive are the calls of the source. No cut-off for these calls is given here.
# Key:
# [1] = target: Methionine--tRNA ligase (Staphylococcus aureus (strain Mu50 / ATCC 700699)) (UniProt P67578); assay: Binding affinity to Staphylococcus aureus MetRS expressed in Escherichia coli BL21(DE3) cells assessed as change in entropy by ITC analysis
# Chain of Methionine--tRNA ligase (Staphylococcus aureus (strain Mu50 / ATCC 700699)) (P67578 whole entry): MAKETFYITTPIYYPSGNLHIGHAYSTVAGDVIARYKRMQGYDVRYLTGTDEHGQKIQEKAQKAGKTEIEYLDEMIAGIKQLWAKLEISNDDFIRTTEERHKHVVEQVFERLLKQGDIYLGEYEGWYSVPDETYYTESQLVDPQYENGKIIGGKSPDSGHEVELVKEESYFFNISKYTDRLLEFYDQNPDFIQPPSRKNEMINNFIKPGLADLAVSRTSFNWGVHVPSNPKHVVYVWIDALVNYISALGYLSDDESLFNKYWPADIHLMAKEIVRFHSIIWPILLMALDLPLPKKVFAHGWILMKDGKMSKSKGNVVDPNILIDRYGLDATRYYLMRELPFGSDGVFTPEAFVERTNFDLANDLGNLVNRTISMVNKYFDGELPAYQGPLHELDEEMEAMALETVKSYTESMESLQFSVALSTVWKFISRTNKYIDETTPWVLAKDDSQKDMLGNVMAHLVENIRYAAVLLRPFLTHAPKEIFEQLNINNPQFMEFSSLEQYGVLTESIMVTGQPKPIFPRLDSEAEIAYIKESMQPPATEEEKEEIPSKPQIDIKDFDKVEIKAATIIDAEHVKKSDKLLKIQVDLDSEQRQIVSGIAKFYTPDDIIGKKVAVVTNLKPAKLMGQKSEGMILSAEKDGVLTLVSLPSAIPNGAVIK
# [2] = target: T1, Methionine--tRNA ligase (Enterococcus faecalis) (UniProt A0A3N3ZFK4); assay: Inhibition of Enterococcus faecalis type 1 MetRS expressed in Escherichia coli BL21(DE3) cells at 50 uM measured after 1.5 hrs by pre-transfer editing assay
# T1 sequence (A0A3N3ZFK4 as listed by the source): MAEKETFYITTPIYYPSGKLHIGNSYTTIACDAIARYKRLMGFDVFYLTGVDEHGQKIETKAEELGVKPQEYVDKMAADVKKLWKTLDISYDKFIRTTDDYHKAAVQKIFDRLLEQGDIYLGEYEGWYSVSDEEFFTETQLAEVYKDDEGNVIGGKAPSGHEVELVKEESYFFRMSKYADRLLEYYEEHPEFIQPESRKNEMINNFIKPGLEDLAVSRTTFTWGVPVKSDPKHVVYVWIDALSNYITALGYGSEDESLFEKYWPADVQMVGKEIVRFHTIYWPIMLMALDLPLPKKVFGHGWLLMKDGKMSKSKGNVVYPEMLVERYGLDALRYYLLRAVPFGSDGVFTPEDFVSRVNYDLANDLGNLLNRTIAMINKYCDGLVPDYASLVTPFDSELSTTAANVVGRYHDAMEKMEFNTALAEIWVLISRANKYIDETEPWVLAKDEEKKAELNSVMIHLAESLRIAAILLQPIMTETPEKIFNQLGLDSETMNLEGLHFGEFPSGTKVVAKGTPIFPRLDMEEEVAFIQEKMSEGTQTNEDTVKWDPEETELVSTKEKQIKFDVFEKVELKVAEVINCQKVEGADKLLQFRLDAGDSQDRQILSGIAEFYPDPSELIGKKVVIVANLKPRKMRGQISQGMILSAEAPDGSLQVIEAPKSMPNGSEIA
# [3] = target: Methionine--tRNA ligase (Staphylococcus aureus (strain Mu50 / ATCC 700699)) (UniProt P67578); assay: Binding affinity to Staphylococcus aureus MetRS expressed in Escherichia coli BL21(DE3) cells assessed as change in entropy in presence of 50 uM ATP by ITC analysis
# [4] = target: Methionine--tRNA ligase (Staphylococcus aureus (strain Mu50 / ATCC 700699)) (UniProt P67578); assay: Binding affinity to Staphylococcus aureus MetRS expressed in Escherichia coli BL21(DE3) cells assessed as change in enthalpy in presence of 1 mM ATP by ITC analysis
# [5] = target: T1, Methionine--tRNA ligase (Enterococcus faecalis); assay: Binding affinity to Enterococcus faecalis type 1 MetRS expressed in Escherichia coli BL21(DE3) cells assessed as change in Gibbs free energy in presence of 1 mM ATP by ITC analysis
# [6] = target: Methionine--tRNA ligase (Staphylococcus aureus (strain Mu50 / ATCC 700699)) (UniProt P67578); assay: Binding affinity to Staphylococcus aureus MetRS expressed in Escherichia coli BL21(DE3) cells assessed as increase in melting temperature incubated for 10 mins followed by heat treatment in presence of 0.30 to 10 mM ADP by SYPRO orange dye based TSA
# [7] = target: Methionine--tRNA ligase (Staphylococcus aureus (strain Mu50 / ATCC 700699)) (UniProt P67578); assay: Inhibition of Staphylococcus aureus MetRS expressed in Escherichia coli BL21(DE3) cells at 100 uM measured after 2.5 hrs in presence of ATP by pre-transfer editing assay relative to control
# [8] = target: T1, Methionine--tRNA ligase (Enterococcus faecalis); assay: Binding affinity to Enterococcus faecalis type 1 MetRS expressed in Escherichia coli BL21(DE3) cells assessed as change in Gibbs free energy by ITC analysis
# [9] = target: Methionine--tRNA ligase (Staphylococcus aureus (strain Mu50 / ATCC 700699)) (UniProt P67578); assay: Binding affinity to Staphylococcus aureus MetRS expressed in Escherichia coli BL21(DE3) cells assessed as change in Gibbs free energy by ITC analysis
# [10] = target: T1, Methionine--tRNA ligase (Enterococcus faecalis); assay: Binding affinity to Enterococcus faecalis type 1 MetRS expressed in Escherichia coli BL21(DE3) cells assessed as change in enthalpy in presence of 1 mM ATP by ITC analysis
# [11] = target: Methionine--tRNA ligase (Staphylococcus aureus (strain Mu50 / ATCC 700699)) (UniProt P67578); assay: Binding affinity to Staphylococcus aureus MetRS expressed in Escherichia coli BL21(DE3) cells assessed as change in entropy in presence of 1 mM ATP by ITC analysis
# [12] = target: Methionine--tRNA ligase (Staphylococcus aureus (strain Mu50 / ATCC 700699)) (UniProt P67578); assay: Binding affinity to Staphylococcus aureus MetRS expressed in Escherichia coli BL21(DE3) cells assessed as change in Gibbs free energy in presence of 500 uM ATP by ITC analysis
# [13] = target: Methionine--tRNA ligase (Staphylococcus aureus (strain Mu50 / ATCC 700699)) (UniProt P67578); assay: Binding affinity to Staphylococcus aureus MetRS expressed in Escherichia coli BL21(DE3) cells assessed as change in entropy in presence of ATP/L-Met by ITC analysis
# [14] = target: Methionine--tRNA ligase (Staphylococcus aureus (strain Mu50 / ATCC 700699)) (UniProt P67578); assay: Binding affinity to Staphylococcus aureus MetRS expressed in Escherichia coli BL21(DE3) cells assessed as change in enthalpy by ITC analysis
# [15] = target: Methionine--tRNA ligase (Staphylococcus aureus (strain Mu50 / ATCC 700699)) (UniProt P67578); assay: Binding affinity to Staphylococcus aureus MetRS expressed in Escherichia coli BL21(DE3) cells assessed as change in Gibbs free energy in presence of 1 mM ATP by ITC analysis
# [16] = target: Methionine--tRNA ligase (Staphylococcus aureus (strain Mu50 / ATCC 700699)) (UniProt P67578); assay: Binding affinity to Staphylococcus aureus MetRS expressed in Escherichia coli BL21(DE3) cells assessed as change in Gibbs free energy in presence of 50 uM ATP by ITC analysis
# [17] = target: Methionine--tRNA ligase (Staphylococcus aureus (strain Mu50 / ATCC 700699)) (UniProt P67578); assay: Binding affinity to Staphylococcus aureus MetRS expressed in Escherichia coli BL21(DE3) cells assessed as change in entropy in presence of 20 uM ATP by ITC analysis
# [18] = target: Methionine--tRNA ligase (Staphylococcus aureus (strain Mu50 / ATCC 700699)) (UniProt P67578); assay: Binding affinity to Staphylococcus aureus MetRS expressed in Escherichia coli BL21(DE3) cells assessed as change in enthalpy in presence of 20 uM ATP by ITC analysis
# [19] = target: Methionine--tRNA ligase (Staphylococcus aureus (strain Mu50 / ATCC 700699)) (UniProt P67578); assay: Binding affinity to Staphylococcus aureus MetRS expressed in Escherichia coli BL21(DE3) cells assessed as change in melting temperature at 100 uM incubated for 10 mins followed by heat treatment in presence of 2 mM ATP by SYPRO orange dye based TSA (reference value: 56.4 degreeC)
# [20] = target: Methionine--tRNA ligase (Staphylococcus aureus (strain Mu50 / ATCC 700699)) (UniProt P67578); assay: Binding affinity to Staphylococcus aureus MetRS expressed in Escherichia coli BL21(DE3) cells assessed as change in Gibbs free energy in presence of 20 uM ATP by ITC analysis
# [21] = target: Methionine--tRNA ligase (Staphylococcus aureus (strain Mu50 / ATCC 700699)) (UniProt P67578); assay: Binding affinity to Staphylococcus aureus MetRS expressed in Escherichia coli BL21(DE3) cells assessed as change in enthalpy in presence of 50 uM ATP by ITC analysis
# [22] = target: Methionine--tRNA ligase (Staphylococcus aureus (strain Mu50 / ATCC 700699)) (UniProt P67578); assay: Binding affinity to Staphylococcus aureus MetRS expressed in Escherichia coli BL21(DE3) cells assessed as change in melting temperature at 100 uM incubated for 10 mins followed by heat treatment by SYPRO orange dye based TSA (reference value: 53.7 degreeC)
# [23] = target: Methionine--tRNA ligase (Staphylococcus aureus (strain Mu50 / ATCC 700699)) (UniProt P67578); assay: Binding affinity to Staphylococcus aureus MetRS expressed in Escherichia coli BL21(DE3) cells assessed as change in entropy in presence of 500 uM ATP by ITC analysis
# [24] = target: T1, Methionine--tRNA ligase (Enterococcus faecalis); assay: Binding affinity to Enterococcus faecalis type 1 MetRS expressed in Escherichia coli BL21(DE3) cells assessed as change in enthalpy by ITC analysis
# [25] = target: Methionine--tRNA ligase (Staphylococcus aureus (strain Mu50 / ATCC 700699)) (UniProt P67578); assay: Binding affinity to Staphylococcus aureus MetRS expressed in Escherichia coli BL21(DE3) cells assessed as increase in melting temperature incubated for 10 mins followed by heat treatment in presence of 0.30 to 10 mM ATP by SYPRO orange dye based TSA
# [26] = target: T1, Methionine--tRNA ligase (Enterococcus faecalis); assay: Binding affinity to Enterococcus faecalis type 1 MetRS expressed in Escherichia coli BL21(DE3) cells assessed as change in entropy in presence of 1 mM ATP by ITC analysis
# [27] = target: Methionine--tRNA ligase (Staphylococcus aureus (strain Mu50 / ATCC 700699)) (UniProt P67578); assay: Binding affinity to Staphylococcus aureus MetRS expressed in Escherichia coli BL21(DE3) cells assessed as increase in melting temperature incubated for 10 mins followed by heat treatment in presence of <3 mM AMP by SYPRO orange dye based TSA
# [28] = target: Methionine--tRNA ligase (Staphylococcus aureus (strain Mu50 / ATCC 700699)) (UniProt P67578); assay: Inhibition of Staphylococcus aureus type 1 MetRS expressed in Escherichia coli BL21(DE3) cells at 50 uM measured after 2.5 hrs by pre-transfer editing assay
# [29] = target: Methionine--tRNA ligase (Staphylococcus aureus (strain Mu50 / ATCC 700699)) (UniProt P67578); assay: Binding affinity to Staphylococcus aureus MetRS expressed in Escherichia coli BL21(DE3) cells assessed as change in Gibbs free energy in presence of ATP/L-Met by ITC analysis
# [30] = target: Methionine--tRNA ligase (Staphylococcus aureus (strain Mu50 / ATCC 700699)) (UniProt P67578); assay: Binding affinity to Staphylococcus aureus MetRS expressed in Escherichia coli BL21(DE3) cells assessed as thermal stability by measuring change in melting temperature incubated for 10 mins followed by heat treatment in presence of 2 mM ATP by SYPRO orange dye based TSA
# [31] = target: Methionine--tRNA ligase (Staphylococcus aureus (strain Mu50 / ATCC 700699)) (UniProt P67578); assay: Binding affinity to Staphylococcus aureus MetRS expressed in Escherichia coli BL21(DE3) cells assessed as change in enthalpy in presence of 500 uM ATP by ITC analysis
# [32] = target: Methionine--tRNA ligase (Staphylococcus aureus (strain Mu50 / ATCC 700699)) (UniProt P67578); assay: Binding affinity to Staphylococcus aureus MetRS expressed in Escherichia coli BL21(DE3) cells assessed as change in enthalpy in presence of ATP/L-Met by ITC analysis
# [33] = target: T1, Methionine--tRNA ligase (Enterococcus faecalis); assay: Binding affinity to Enterococcus faecalis type 1 MetRS expressed in Escherichia coli BL21(DE3) cells assessed as change in entropy by ITC analysis
# [34] = tested on: Staphylococcus aureus; assay: Antibacterial activity against Staphylococcus aureus; assay type: functional
structure (smiles),measurement,setting,value
N=C(NCCCCCCNC(=N)NC(=N)Nc1ccc(Cl)cc1)NC(=N)Nc1ccc(Cl)cc1 [CHLORHEXIDINE],-TdeltaS,[1],0.027 kcal/mol
same,inhibition,[2],Active
same,-TdeltaS,[3],10.7 kcal/mol
same,deltaH,[4],-11 kcal/mol
same,deltaG,[5],-8.91 kcal/mol
same,Activity,[6],Active
same,inhibition,[7],78.3%
same,deltaG,[8],-7.23 kcal/mol
same,deltaG,[9],-6.81 kcal/mol
same,deltaH,[10],-7.31 kcal/mol
same,-TdeltaS,[11],2.31 kcal/mol
same,deltaG,[12],-8.5 kcal/mol
same,-TdeltaS,[13],6.23 kcal/mol
same,deltaH,[14],-5.95 kcal/mol
same,deltaG,[15],-8.66 kcal/mol
same,deltaG,[16],-8.07 kcal/mol
same,-TdeltaS,[17],13.8 kcal/mol
same,deltaH,[18],-20 kcal/mol
same,ΔTm,[19],7 °C
same,deltaG,[20],-7.52 kcal/mol
same,deltaH,[21],-18.8 kcal/mol
same,ΔTm,[22],-3.4 °C
same,-TdeltaS,[23],4.43 kcal/mol
same,deltaH,[24],-11.3 kcal/mol
same,Activity,[25],Active
same,-TdeltaS,[26],-1.6 kcal/mol
same,Activity,[27],inactive
same,inhibition,[28],Active
same,deltaG,[29],-7.34 kcal/mol
same,ΔTm,[30],7 °C
same,deltaH,[31],-12.5 kcal/mol
same,deltaH,[32],-13.6 kcal/mol
same,-TdeltaS,[33],4.06 kcal/mol
same,MIC,[34],0.25 µg/mL
COc1cc(Nc2c(C#N)cnc3cc(OCCCN4CCN(C)CC4)c(OC)cc23)c(Cl)cc1Cl,inhibition,[7],32.7%
same,ΔTm,[19],2.1 °C
same,ΔTm,[22],0.5 °C
